Results as given in EP0732331A1, “Novel benzothiophene compounds and methods for inhibiting lipoxygenase and leukotrienes” (ELI LILLY AND COMPANY, priority 1995, dated 1996).
Read-outs that look alike come from different tables or passages of the source.

Legend:
[1] = tested on: production of leukotriene B4 (LTB4); experiment: Inhibition of Eicosanoid Production by Plasma-depleted Blood: LTB4; type: cell-based; conditions: Homo sapiens, read-out: LTB4
Experimental: (§1) Compounds are evaluated for their ability to inhibit production of leukotriene B4 (LTB4) and thromboxane B2 (TxB2) upon stimulation of human plasma-depleted blood with formyl-methionyl-leucyl-phenylalanine (FMLP) and thrombin. LTB4 is produced by neutrophils and TxB2 by platelets stimulated at their respective receptors with FMLP and thrombin. The assay is carried out in 1 ml deep well polypropylene 96-well plates (Beckman). For the test, ten ml of blood is collected in EDTA at a final concentration of 1.5 mg/ml. Then, 40 ml glucose phosphate buffer containing 0.1% gelatin is added and the suspension centrifuged at 900 g for 10 minutes at room temperature. The supernatant is discarded and the cells washed once with 50 ml buffer before resuspending them in 50 ml Krebs-Ringers-Henseleit Buffer containing 0.1% gelatin, 1 mM CaCl2, 1.1 mM MgCl2 (KRH buffer). Working solutions of test compounds are made by dissolving the material in DMSO at 10 mM and diluting with appropriate amounts of KRH buffer. An agonist solution is made containing 1 µM FMLP (sigma) and 10 units/ml of thrombin in KRH buffer (Enzyme Research Labs). The blood cell suspension is first warmed to 37° C for 5 minutes and then mixed with cytochalasin B (sigma) at a final concentration of 2 µg/ml. In each well, 200 µl of the compound solution is incubated with 250 µl of the blood cell, cytochalasin B suspension at 37° C for 10 min. Stimulation of eicosanoid production is begun by adding 50 µl of the agonist solution. The mixture is then incubated for 2 min. before stopping the reaction by adding 50 µl of a solution containing 275 mM EDTA, 110 µM indomethacin (sigma) and 110 µM of the 5-lipoxygenase inhibitor, N-hydroxy-N-[3-[2-(2-propynylthio)phenyl]-2-propenyl]urea. Subsequently, the plate is centrifuged and an aliquot of the supernatant fluid removed for analysis of the eicosanoid content. The amount of LTB4 and TxB2 produced is determined by the use of a competitive enzyme immunoassay using commercial reagents from Cayman Chemical.

[2] = tested on: production of LTC4 by the cytokine dependent mast cell line MCII; experiment: MCII Mast Cell LTC4 Assay; type: cell-based, mouse; conditions: read-out: LTC4
Description: This assay measures the production of LTC4 by the cytokine dependent mast cell line MCII, stimulated by cross linking the high affinity Fc receptor for IgE (FcεR1).
The bone marrow derived, cytokine dependent mouse mast cell line MCII (Lilly Research Laboratories) is maintained in log phase growth in complete Dulbecco's' Modified Eagles Medium (GIBCO BRL) supplemented with fetal bovine serum (Hyclone), gentamicin, penicillin and streptomycin (GIBCO BRL) and using concanavalin A (ICN ImmunoBiologicals) induced culture supernatants from the mouse helper T cell clone D10.G4 (ATCC TIB 224) as a source of mast cell growth factors. The MCII cells are passively sensitized with mouse monoclonal IgE by incubation with an appropriate dilution of IgEL b4 (ATCC TIB 141) antibody ascites at 37° C for 60 minutes and then washed with Hank's Balanced Salt Solution (GIBCO BRL) to remove unbound IgE. The sensitized cells are then preincubated with drug in complete media for 10 minutes at 37° C in 96 well polypropylene plates (Costar). Each drug concentration is tested in triplicate at half log dilutions. The drug vehicle is dimethyl sulfoxide which is present at a final concentration of 0.32% in all wells.
There are 40,000 MCII cells per well in a final volume of 200 µl complete medium. The stimulated cells are incubated at 37° C for 10 minutes and then LTC4 production is stopped by addition of 25 µl of 180 mM EDTA to chelate extracellular Ca^++.
The amount of LTC4 produced is determined in a competitive enzyme immunoassay (EIA) using commercial reagents purchased from Cayman Chemical Co. In the EIA, free LTC4 in the sample competes with enzyme conjugated LTC4 for binding to immobilized anti-LTC4 antibody. The enzyme conjugated to LTC4 is acetylcholinesterase and Elman's reagent is the substrate for the enzyme. The concentration of LTC4 in the unknown sample is determined using a 4-parameter quadratic analysis of a standard curve generated by measuring the optical density resulting from the addition of known amounts of LTC4 to the EIA.
The positive control on each plate is stimulated MCII cells with dimethyl sulfoxide vehicle alone and the negative control is the same reaction mixture without cells. The background negative control value is subtracted from experimental and positive control values and the data are reported as percent of positive control.

[3] = tested on: MCII cells; experiment: MCII Mast Cell Toxicity Assay (XTT); type: cell-based; conditions: Mus musculus, read-out: Toxicity
Description: This toxicity assay is run in parallel with the MCII mast cell LTC4 assay and serves as an indicator of compound effects on the viability and metabolic activity of the MCII cells. This "toxicity" assay is based on the ability of dehydrogenase enzymes present in viable metabolically active cells to bioreduce the tetrazolium salt XTT yielding a colored, water soluble formazan product. (see, Roehm et al.) "An improved colorimetric assay for cell proliferation and viability utilzing the tetrazolium salt XTT. J. Immunol. Methods 142:257-65 (1991).
A duplicate polystyrene 96-well tissue culture plate (Costar) is set up with sensitized MCII cells, EM95 ascites, media and dilutions of the test compound as described above. The complete media is supplemented with concanavalin A induced culture supernatants from the mouse helper T cell clone D10.G4, as a source of mast cell growth factors.
Wells of the toxicity assay plate are pulsed with 25 µl XTT (Sigma) plus phenazine methosulfate (Aldrich) giving a final concentration of 0.2 mg/ml XTT and 25 µM phenazine methosulfate. The plates are incubated at 37° C in 10% CO2 for 4-12 hours and then production of the XTT formazan product determined by measuring the optical density of the wells at a wavelength of 450 nm. The positive control on each plate is stimulated MCII cells with dimethyl sulfoxide vehicle alone and the negative control is the same reaction mixture without cells. The background negative control value is subtracted from experimental and positive control values and the data are reported as percent of positive control.

[4] = tested on: production of thromboxane B2 (TxB2); experiment: Inhibition of Eicosanoid Production by Plasma-depleted Blood: TxB2; type: cell-based; conditions: Homo sapiens, read-out: TxB2
Experimental: as §1

[5] = target: T1, cPLA2 (Homo sapiens, UniProt P47712); experiment: Chromogenic cPLA2 enzyme assay; type: biochemical; conditions: C-PLA2 Enzyme
T1 sequence (P47712 1-749): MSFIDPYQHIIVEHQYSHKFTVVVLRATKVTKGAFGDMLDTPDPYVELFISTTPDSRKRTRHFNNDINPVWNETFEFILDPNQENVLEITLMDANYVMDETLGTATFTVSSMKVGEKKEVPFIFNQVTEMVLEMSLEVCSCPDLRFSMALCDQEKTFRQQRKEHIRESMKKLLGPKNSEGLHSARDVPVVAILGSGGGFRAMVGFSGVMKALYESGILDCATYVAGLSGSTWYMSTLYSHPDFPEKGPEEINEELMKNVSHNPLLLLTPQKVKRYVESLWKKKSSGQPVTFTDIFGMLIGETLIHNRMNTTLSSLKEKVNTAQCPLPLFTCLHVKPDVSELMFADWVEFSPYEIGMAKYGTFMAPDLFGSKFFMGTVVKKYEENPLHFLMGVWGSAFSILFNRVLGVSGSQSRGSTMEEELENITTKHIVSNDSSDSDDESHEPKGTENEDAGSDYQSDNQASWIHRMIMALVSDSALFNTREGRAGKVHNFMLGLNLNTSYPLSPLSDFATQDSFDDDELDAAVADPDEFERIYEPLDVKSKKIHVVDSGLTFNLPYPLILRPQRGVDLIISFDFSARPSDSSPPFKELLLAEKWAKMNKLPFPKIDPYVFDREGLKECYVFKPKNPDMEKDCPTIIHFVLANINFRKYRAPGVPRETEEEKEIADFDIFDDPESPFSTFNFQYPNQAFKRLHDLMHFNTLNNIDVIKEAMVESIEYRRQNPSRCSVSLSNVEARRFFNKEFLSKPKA

[6] = target: T2, cytosolic 5-lipoxygenase (Homo sapiens, UniProt P09917); experiment: 5-Lipoxygenase (5-LPO) Assay; type: biochemical; conditions: inhibition of leukotriene B4; human neutrophil 20,000 x g supernatant; 5 minutes at 37°C
T2 construct: Cells are disrupted with sonication and the cytosolic fraction obtained by centrifugation at 20,000 x g; from tissue; host or cells: human peripheral blood neutrophils, 20,000 x g cytosolic supernatant
T2 sequence (P09917 1-674): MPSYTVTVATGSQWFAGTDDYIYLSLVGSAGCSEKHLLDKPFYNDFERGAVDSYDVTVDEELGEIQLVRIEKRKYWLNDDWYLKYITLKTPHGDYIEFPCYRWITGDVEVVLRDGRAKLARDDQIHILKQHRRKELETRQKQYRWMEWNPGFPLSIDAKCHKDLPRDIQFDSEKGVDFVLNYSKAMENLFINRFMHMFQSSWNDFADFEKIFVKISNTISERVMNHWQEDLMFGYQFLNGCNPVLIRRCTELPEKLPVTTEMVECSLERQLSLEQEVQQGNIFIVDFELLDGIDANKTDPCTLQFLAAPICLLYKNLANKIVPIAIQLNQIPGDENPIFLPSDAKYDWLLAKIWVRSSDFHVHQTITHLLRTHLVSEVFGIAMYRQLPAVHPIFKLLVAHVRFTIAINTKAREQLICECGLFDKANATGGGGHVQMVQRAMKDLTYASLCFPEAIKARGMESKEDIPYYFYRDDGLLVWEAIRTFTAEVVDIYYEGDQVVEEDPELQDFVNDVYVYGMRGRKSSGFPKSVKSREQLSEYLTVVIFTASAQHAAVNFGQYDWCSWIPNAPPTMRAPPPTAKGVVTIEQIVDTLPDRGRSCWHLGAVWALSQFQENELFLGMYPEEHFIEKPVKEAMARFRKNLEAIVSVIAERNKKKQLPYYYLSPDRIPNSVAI
Experimental: To determine the effect of compounds on 5-lipoxygenase activity, peripheral blood neutrophils are separated by density centrifugation as described (Marder et al., Prostaglandins Leukot. and Essent. Fatty Acids 46 , 265-270, 1992) and the cytosolic 5-lipoxygenase is prepared from isolated neutrophils according to a modification of Carter et al., (J. Pharmacol. Exp. Ther. 256 , 929-937 (1991)). Briefly, neutrophils are washed twice in buffer (in millimolar: PIPES, 10; BES, 10; and EDTA, 1; pH 6.8) and diluted to 2.5 x 10^7 cells/ml. Cells are disrupted with sonication and the cytosolic fraction obtained by centrifugation at 20,000 x g for 20 min. at 4°C. The resultant supernatant containing the cytosolic 5-lipoxygenase activity is stored frozen at -70°C prior to use. Compounds are evaluated for 5-lipoxygenase inhibitory activity. Varying concentration of compounds in 200 ml aliquots containing 50 ml of human 20,000 x g supernatant in assay buffer (in millimolar: PIPES, 10; BES, 10; EDTA, 1; NaCl, 100; ATP, 1.56; and CaCl2,, 2.5; pH 6.8) containing 3.0 mM AA are used. The reaction proceeds for 5 minutes at 37°C and is terminated upon the addition of 50 ml EDTA (250 mM). The percent inhibition of leukotriene B4 is determined for each concentration of test compound as compared to vehicle (containing no compound) control. […] Leukotriene B4 is determined by EIA.

[7] = Plasma DPLTD Blood, stimulated with FMLP and thrombin
[8] = MCII Mast Cell, IgE-sensitized, stimulated with anti-mouse IgE EM95
[9] = MCII Mast Cell, XTT reduction, 4-12 hours

Compound | IC50 ([2]; Mus musculus, Mast cell) [nM] | IC50 [1, 7] [nM] | IC50 [2, 8] [nM] | IC50 [3, 9] [nM] | IC50 [4, 7] [nM] | other results
O=C(c1ccccc1)c1c(-c2ccc(O)cc2)sc2cc(O)ccc12 [Compound A] | 7100 ± 500 | – | – | – | – | IC50 [1]: 500 nM; IC50 ([3]; Mast cell): 300 nM; IC50 [4]: 4900 nM
Oc1ccc(-c2cc3ccc(O)cc3s2)cc1 [Compound B] | – | 800 | 700 | < 10000 | 3300 | IC50 [5]: > 200000 nM
COc1ccc(C(=O)c2c(-c3ccc(OC)cc3)sc3cc(OC)ccc23)cc1 [Compound C] | – | 1500 ± 400 | 6700 ± 3000 | – | 2000 ± 600 | IC50 [6]: > 10000 nM
O=C(c1ccc(O)cc1)c1c(-c2ccc(O)cc2)sc2cc(O)ccc12 [Compound D] | – | – | – | – | – | IC50 [1]: 1600 nM; IC50 [4]: > 9800 nM
O=C(c1ccc(-c2ccccc2)cc1)c1c(-c2ccc(O)cc2)sc2cc(O)ccc12 [Example 1] | – | 2200 ± 400 | 4400 | > 10000 | 2400 ± 1200 | –
O=C(c1cccc2ccccc12)c1c(-c2ccc(O)cc2)sc2cc(O)ccc12 [Example 2, 6-hydroxyphenyl-2-(p-hydroxyphenyl)-(benzo(B)thien-3-yl)(α-napthyl)methanone] | – | 200 ± 100 | 500 ± 200 | > 10000 | 4900 ± 2400 | IC50 [5]: > 200000 nM
O=C(c1ccc2ccccc2c1)c1c(-c2ccc(O)cc2)sc2cc(O)ccc12 [Example 3, 6-hydroxyphenyl-2-(p-hydroxyphenyl)-(benzo(B)thien-3-yl)(β-napthyl)methanone] | – | 200 | 3900 ± 1800 | > 10000 | 1400 | –
COc1ccc(-c2sc3cc(OC)ccc3c2C(=O)c2cc(OC)c(O)c(OC)c2)cc1 [Example 7A] | 1500 ± 300 | – | – | – | – | –
CC(C)(C)c1ccc(C(=O)c2c(-c3ccc(O)cc3)sc3cc(O)ccc23)cc1 [Example 8] | – | – | 3500 ± 2100 | – | – | –
Cc1ccc(C(=O)c2c(-c3ccc(O)cc3)sc3cc(O)ccc23)cc1 [Example 9] | 800 ± 500 | – | – | – | – | –
Cc1cccc(C(=O)c2c(-c3ccc(O)cc3)sc3cc(O)ccc23)c1 [Example 10] | 1100 ± 200 | – | – | – | – | –
O=C(c1cccc(O)c1)c1c(-c2ccc(O)cc2)sc2cc(O)ccc12 [Example 11] | 2700 | – | – | – | – | –
CC(c1cc2ccccc2s1)N(O)C(N)=O (stereo not shown) [Zileuton, (I)-N-(1-benzo[B]thien-2-ylethyl)-N-hydroxyurea, reference compound] | 500 ± 300 | – | – | – | – | –
